Data published in patent US11844776B2, “Composition for treatment and/or prevention of peripheral nerve disorder” (OSAKA CITY UNIVERSITY, priority 2016, dated 2023).

Key:
LIS1 protein [1] = experiment: Expression amount of LIS1 protein in dorsal root ganglion neurons by western blotting; format: cell-based, mouse; settings: 200 μM
Method: Dorsal root ganglion neurons were isolated from mice (3 days old or 15 days old) and the expression amount of LIS1 protein was analyzed in the order of time sequence from initiation of culture. Protein extraction was performed by adding 100 μl of a protein-dissolving liquid (30 mM Tris-HCl, pH 6.8, 1.5% sodium dodecyl sulfate (SDS), 0.3% bromophenol blue (BPB), 0.3% 2-mercapto-ethanol (2-ME), and 15% glycerol) per 5×10^4 dorsal root ganglion neurons and further performing ultrasonic treatment to achieve complete solubilization. After the heat treatment at 95° C. for 5 minutes, 1 μl of the obtained protein lysate was separated by 12.5% SDS-acrylamide electrophoresis and subjected to western blotting using anti-LIS1 antibody to detect LIS protein (the left-side figure in FIG. 2). The intensity of the detected band was analyzed (after correction with the intensity of the GAPDH band), and the expression ratio of LIS protein was determined (right-side figure in FIG. 2). […]
After the incubation, the procedures were performed in the same manner as described above in the “Analysis of Expression Amount of LIS1 Protein in Dorsal Root Ganglion Neurons” section to detect LIS protein by western blotting (the left-side figure in FIG. 5). Further, the intensity of the detected band was analyzed to determine the expression ratio of the LIS protein (the right-side figure in FIG. 5).

LIS1 protein [2] = settings: disclosed in WO2012/074120; based on calpain inhibitory activity; cited from earlier work
[3] = tested on: sciatic nerve injury model mice; experiment: Histological analysis of sciatic nerves in sciatic nerve injury models; format: in vivo, mouse
Method: (§1) To investigate the effect of SNJ1945 on promoting peripheral nerve regeneration, mouse sciatic nerve injury models were prepared and histologically analyzed. The models were used as sciatic nerve injury model mice produced according to the method of Wall et al. (Wall, 1979). More specifically, model mice were produced in the following manner. Four-week-old female mice were subjected to general anesthesia with sevoflurane inhalation anesthesia (Mylan N.V.) and laid down in a prone position. The skin on the femur was incised. The muscle layer was peeled off carefully and quickly so as not to injure the sciatic nerve. The nerve was severed (completely injured) at mid-thigh at one point with an interval of 40 mm from the periphery. The muscle layer and the skin were then sutured and disinfected. The mice were used as complete nerve injury model mice. Administration of SNJ1945 was performed by mixing SNJ-1945 into a diet (CE-2, CLEA Japan, Inc.) and orally administering the mixture continuously to each mouse in an amount of 200 μg of SNJ1945/per gram of body weight/day. Mice that were subjected to the same complete nerve injury and maintained on a diet not containing SNJ1945 (CE-2, CLEA Japan, Inc.) were used as a control group.
For histological analysis, after the mice were sacrificed by cervical dislocation, sciatic nerves were removed and fixed in 4% paraformaldehyde for 24 hours. After the paraformaldehyde was replaced with PBS, the sciatic nerves were embedded in paraffin. The tissue block was cut into 5-μm-thick sections and each tissue section was adhered onto a glass slide. For hematoxylin and eosin staining, each tissue section was 1) deparaffinized, 2) washed with water, 3) stained with Mayer's or Carrazzi's hematoxylin, 4) lightly washed with running water, 5) allowed to develop color, 6) stained with an eosin solution for 1 minute, and 7) subjected to dehydration, clearing, and embedding; and morphologically observed under an optical microscope.
Samples for observation under an electron microscope were prepared in the following manner. Sciatic nerves were removed in the same manner as above and then placed in a fixative (2.5% glutaraldehyde). Ten minutes after being placed in the fixative, the sciatic nerves were removed and placed in several drops of the fixative that had been dropped on a thick plastic sheet beforehand, and cut into thin sections. Post-fixation was performed using an aqueous osmium tetroxide solution. Next, free water contained in the tissue was replaced with ethyl alcohol. In order to make ultrathin sections, the tissue was embedded in an epoxy resin, and tissue sections were produced with an ultramicrotome. Observation was performed using a transmission electron microscope (Hitachi Ltd.: H-7500).

[4] = tested on: sciatic nerve injury model mice; experiment: Functional analysis of sciatic nerves in sciatic nerve injury models; format: in vivo, mouse
Method: as §1, with “Mice that were subjected to the same complete nerve injury and maintained on a diet not containing SNJ1945 (CE-2, CLEA Japan, Inc.) were used as a control group.” left out
To further investigate the peripheral nerve regeneration promotion effect of SNJ1945, motor function of sciatic nerve injury model mice was evaluated based on the sciatic function index (SFI) and print length factor (PLI) using Footprint (Bain et al., 1989).

[5] = tested on: dorsal root ganglion neurons; experiment: Effect of SNJ1945 on axon elongation in mouse dorsal root ganglion neurons; format: cell-based; settings: 200 μM, 24 or 48 hours, vs 1% DMSO
Method: Dorsal root ganglions were aseptically extracted from postnatal mice (3, 10, or 15 days old) under a stereoscopic microscope, and tissue fragments were dispersed by gentle pipetting and then treated with 0.025% trypsin/0.0013% DNaseI (both being final concentrations) at 37° C. for 20 minutes. After centrifugation, a BME culture solution (Gibco) containing 10% equine blood serum was added, and washing was performed. After the enzyme reaction was stopped, a BME culture solution containing 0.0052% DNaseI/10% equine blood serum (both being final concentrations) was added, and pipetting was performed. […] After incubation for another 15 minutes at room temperature, the resulting aggregates were washed well and carefully embedded using glycerol for fluorescence microscope observation (Merck) so as not to break up the aggregates. […] Dorsal root ganglion neurons were also isolated from LIS1 hetero mice (3 days old) and analyzed in the same manner.
Dorsal root ganglion neurons were isolated from 3-day-old mice or 15-day-old mice, and the correlation between the presence or absence of SNJ1945 addition and axon length was analyzed. […]

[6] = complete nerve injury model, oral in diet 200 μg/g body weight/day, 1 week after administration, vs control group

## COCCOCCOC(=O)N[C@@H](CC(C)C)C(=O)N[C@@H](Cc1ccccc1)C(=O)C(=O)NC1CC1 [Compound 17, ((1S)-1-((((1S)-1-Benzyl-2,3-dioxo-3-(cyclopropylamino)propyl)amino)carbonyl)-3-methylbutyl)carbamic acid 5-methoxy-3-oxapentyl ester]
LIS1 protein [1]; neurons from 3-day-old mice
  expression amount of LIS1 protein: not able to significantly increase the expression amount
LIS1 protein [1]; neurons from 15-day-old mice
  expression amount of LIS1 protein: significantly increased the expression amount of LIS1
LIS1 protein [2]
  effect of amplifying LIS1 protein: has an effect of amplifying LIS1 protein
[3]; administration started 1 week after severance, analyzed 1 month after severance
  myelin regeneration in sciatic nerves after nerve cell degeneration: significantly high myelin regeneration
[3]; [6]
  recovery of myelin (electron microscope): recovery of myelin
  recovery of sciatic nerves (hematoxylin and eosin staining): significant recovery of sciatic nerves
[3]; complete nerve injury model, oral in diet, FIG. 24, vs control group
  number of myelin whose recovery was recognized (regeneration of myelin in sciatic nerves): significantly high regeneration of myelin
[4]; complete injury model, one month after administering, vs control group mouse
  condition of the paw: recovered to the extent that the mouse could grasp the cage
[4]; continuous administration
  recovery of complete nerve injury models (motor function): further promoted recovery
[5]; neurons from 3-day-old mice
  axon elongation (axon length): axon elongation promotion effect
[5]; neurons from 15-day-old mice
  axon elongation (axon length): significant axon elongation promotion effect
